Data reported in ChEMBL document CHEMBL1156131, “Discovery of pyrazol-3-ylamino pyrazines as novel JAK2 inhibitors” (Bioorg Med Chem Lett, 2009).

Assays:
[1] = target: T1, Tyrosine-protein kinase JAK2 (Homo sapiens, UniProt O60674); experiment: Inhibition of JAK2 using 5 mM ATP as a substrate
[2] = target: T1, Tyrosine-protein kinase JAK2; experiment: Inhibition of JAK2 using 2 mM ATP as a substrate
[3] = target: T2, Tyrosine-protein kinase JAK3 (Homo sapiens, UniProt P52333); experiment: Inhibition of JAK3 using 5 mM ATP as a substrate
T2 sequence (P52333 whole entry): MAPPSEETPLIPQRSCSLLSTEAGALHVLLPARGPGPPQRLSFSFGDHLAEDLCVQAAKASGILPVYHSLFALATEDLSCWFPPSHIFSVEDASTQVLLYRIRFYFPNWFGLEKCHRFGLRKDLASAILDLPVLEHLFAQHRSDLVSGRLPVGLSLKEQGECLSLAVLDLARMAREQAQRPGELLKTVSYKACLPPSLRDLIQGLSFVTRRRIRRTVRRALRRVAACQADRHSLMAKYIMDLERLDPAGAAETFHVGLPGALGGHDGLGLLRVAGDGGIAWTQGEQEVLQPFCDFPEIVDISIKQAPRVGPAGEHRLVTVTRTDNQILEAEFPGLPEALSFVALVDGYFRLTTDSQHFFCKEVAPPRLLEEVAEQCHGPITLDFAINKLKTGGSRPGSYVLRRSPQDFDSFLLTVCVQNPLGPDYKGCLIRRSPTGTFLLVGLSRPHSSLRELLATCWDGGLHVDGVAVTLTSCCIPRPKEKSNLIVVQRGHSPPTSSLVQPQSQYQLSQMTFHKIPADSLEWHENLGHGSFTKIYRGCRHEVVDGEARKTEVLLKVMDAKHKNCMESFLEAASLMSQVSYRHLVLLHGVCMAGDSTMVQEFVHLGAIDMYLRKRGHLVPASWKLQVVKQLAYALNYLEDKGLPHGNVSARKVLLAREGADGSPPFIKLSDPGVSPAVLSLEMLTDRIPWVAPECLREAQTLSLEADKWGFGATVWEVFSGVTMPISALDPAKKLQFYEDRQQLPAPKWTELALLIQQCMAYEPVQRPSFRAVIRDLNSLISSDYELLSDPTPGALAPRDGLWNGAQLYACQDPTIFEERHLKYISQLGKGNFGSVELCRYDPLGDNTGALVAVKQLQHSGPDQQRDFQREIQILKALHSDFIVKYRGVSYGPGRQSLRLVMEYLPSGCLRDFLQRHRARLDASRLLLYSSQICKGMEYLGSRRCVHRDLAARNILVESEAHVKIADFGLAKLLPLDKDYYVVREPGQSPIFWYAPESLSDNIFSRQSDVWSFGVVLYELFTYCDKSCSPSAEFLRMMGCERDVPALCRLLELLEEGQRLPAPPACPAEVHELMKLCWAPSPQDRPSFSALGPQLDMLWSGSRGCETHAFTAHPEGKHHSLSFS

[4] = target: T1, Tyrosine-protein kinase JAK2; experiment: Inhibition of Tel-fused JAK2
[5] = target: Cyclin-dependent kinase 2 (Homo sapiens, UniProt P24941); experiment: Inhibition of CDK2
[6] = system: Mus musculus; experiment: Ex vivo inhibition of STAT5 phosphorylation in NCr mouse implanted with Tel-fused JAK expressing mouse BAF3 cells at 25 mg/kg, po after 4 hrs; assay type: functional; details: BaF3, 4 h
[7] = target: Aurora kinase B (Homo sapiens, UniProt Q96GD4); experiment: Inhibition of Aurora B
Chain of Aurora kinase B (Q96GD4 whole entry, the tested form may be a part): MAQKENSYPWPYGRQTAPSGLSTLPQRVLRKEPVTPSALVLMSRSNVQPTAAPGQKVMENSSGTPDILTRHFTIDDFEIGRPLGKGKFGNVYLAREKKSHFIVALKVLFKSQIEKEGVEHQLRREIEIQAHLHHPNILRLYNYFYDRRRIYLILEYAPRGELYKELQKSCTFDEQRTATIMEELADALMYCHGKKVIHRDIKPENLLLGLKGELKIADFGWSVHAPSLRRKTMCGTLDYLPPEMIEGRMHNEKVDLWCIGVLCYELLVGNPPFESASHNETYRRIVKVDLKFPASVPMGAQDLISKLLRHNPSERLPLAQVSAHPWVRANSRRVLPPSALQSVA

[8] = system: Mus musculus; experiment: Ex vivo inhibition of STAT5 phosphorylation in NCr mouse implanted with Tel-fused JAK expressing mouse BAF3 cells at 5 mg/kg, po after 2 hrs; assay type: functional; details: BaF3, 2 h
[9] = Clearance in Wistar rat at 10 mg/kg, po and 3 mg/kg, iv; assay type: ADME, organism-based; details: in vivo
[10] = Half life Wistar rat at 10 mg/kg, po and 3 mg/kg, iv; assay type: ADME, organism-based; details: in vivo
[11] = target: High affinity nerve growth factor receptor (Homo sapiens, UniProt P04629); experiment: Inhibition of TRKA
Chain of High affinity nerve growth factor receptor (P04629 whole entry, the tested form may be a part): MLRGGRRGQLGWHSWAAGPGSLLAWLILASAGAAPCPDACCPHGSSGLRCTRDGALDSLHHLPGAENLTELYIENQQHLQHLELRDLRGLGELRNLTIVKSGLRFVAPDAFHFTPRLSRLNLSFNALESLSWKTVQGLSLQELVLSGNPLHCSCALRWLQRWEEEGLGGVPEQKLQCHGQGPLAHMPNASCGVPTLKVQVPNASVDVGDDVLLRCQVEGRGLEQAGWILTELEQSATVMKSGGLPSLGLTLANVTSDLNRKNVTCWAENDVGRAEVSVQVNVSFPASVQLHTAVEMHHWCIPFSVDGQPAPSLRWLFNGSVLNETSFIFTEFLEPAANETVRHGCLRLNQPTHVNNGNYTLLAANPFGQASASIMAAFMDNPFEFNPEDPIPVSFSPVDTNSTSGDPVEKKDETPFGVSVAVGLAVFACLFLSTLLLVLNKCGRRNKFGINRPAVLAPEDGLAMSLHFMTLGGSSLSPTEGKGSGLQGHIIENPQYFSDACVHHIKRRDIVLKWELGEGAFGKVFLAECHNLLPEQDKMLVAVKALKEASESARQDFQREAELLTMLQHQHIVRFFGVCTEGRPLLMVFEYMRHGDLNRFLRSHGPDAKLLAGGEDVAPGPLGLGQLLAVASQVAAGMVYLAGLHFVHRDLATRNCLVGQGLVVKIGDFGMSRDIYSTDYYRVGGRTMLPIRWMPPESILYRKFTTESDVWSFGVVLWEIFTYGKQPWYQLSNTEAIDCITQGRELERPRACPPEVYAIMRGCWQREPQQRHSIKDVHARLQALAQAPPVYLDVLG

[12] = target: T3, Tyrosine-protein kinase JAK3 (Homo sapiens) (UniProt P52333); experiment: Inhibition of Tel-fused JAK3
T3 sequence (whole entry): T2 sequence (P52333 whole entry)

[13] = system: Mus musculus; experiment: Ex vivo inhibition of STAT5 phosphorylation in NCr mouse implanted with Tel-fused JAK expressing mouse BAF3 cells at 25 mg/kg, po after 2 hrs; assay type: functional; details: BaF3, 2 h
[14] = Volume of distribution at steady state in Wistar rat at 10 mg/kg, po and 3 mg/kg, iv; assay type: ADME, organism-based; details: in vivo, read-out: Vdss
[15] = system: Mus musculus; experiment: Ex vivo inhibition of STAT5 phosphorylation in NCr mouse implanted with Tel-fused JAK expressing mouse BAF3 cells at 10 mg/kg, po after 2 hrs; assay type: functional; details: BaF3, 2 h
[16] = Volume of distribution at steady state in Beagle dog at 10 mg/kg, po and 3 mg/kg, iv; assay type: ADME, organism-based, Canis lupus familiaris; details: in vivo, read-out: Vdss
[17] = Half life Beagle dog at 10 mg/kg, po and 3 mg/kg, iv; assay type: ADME, organism-based, Canis lupus familiaris; details: in vivo
[18] = Clearance in Beagle dog at 10 mg/kg, po and 3 mg/kg, iv; assay type: ADME, organism-based, Canis lupus familiaris; details: in vivo

T1 sequence (O60674 whole entry): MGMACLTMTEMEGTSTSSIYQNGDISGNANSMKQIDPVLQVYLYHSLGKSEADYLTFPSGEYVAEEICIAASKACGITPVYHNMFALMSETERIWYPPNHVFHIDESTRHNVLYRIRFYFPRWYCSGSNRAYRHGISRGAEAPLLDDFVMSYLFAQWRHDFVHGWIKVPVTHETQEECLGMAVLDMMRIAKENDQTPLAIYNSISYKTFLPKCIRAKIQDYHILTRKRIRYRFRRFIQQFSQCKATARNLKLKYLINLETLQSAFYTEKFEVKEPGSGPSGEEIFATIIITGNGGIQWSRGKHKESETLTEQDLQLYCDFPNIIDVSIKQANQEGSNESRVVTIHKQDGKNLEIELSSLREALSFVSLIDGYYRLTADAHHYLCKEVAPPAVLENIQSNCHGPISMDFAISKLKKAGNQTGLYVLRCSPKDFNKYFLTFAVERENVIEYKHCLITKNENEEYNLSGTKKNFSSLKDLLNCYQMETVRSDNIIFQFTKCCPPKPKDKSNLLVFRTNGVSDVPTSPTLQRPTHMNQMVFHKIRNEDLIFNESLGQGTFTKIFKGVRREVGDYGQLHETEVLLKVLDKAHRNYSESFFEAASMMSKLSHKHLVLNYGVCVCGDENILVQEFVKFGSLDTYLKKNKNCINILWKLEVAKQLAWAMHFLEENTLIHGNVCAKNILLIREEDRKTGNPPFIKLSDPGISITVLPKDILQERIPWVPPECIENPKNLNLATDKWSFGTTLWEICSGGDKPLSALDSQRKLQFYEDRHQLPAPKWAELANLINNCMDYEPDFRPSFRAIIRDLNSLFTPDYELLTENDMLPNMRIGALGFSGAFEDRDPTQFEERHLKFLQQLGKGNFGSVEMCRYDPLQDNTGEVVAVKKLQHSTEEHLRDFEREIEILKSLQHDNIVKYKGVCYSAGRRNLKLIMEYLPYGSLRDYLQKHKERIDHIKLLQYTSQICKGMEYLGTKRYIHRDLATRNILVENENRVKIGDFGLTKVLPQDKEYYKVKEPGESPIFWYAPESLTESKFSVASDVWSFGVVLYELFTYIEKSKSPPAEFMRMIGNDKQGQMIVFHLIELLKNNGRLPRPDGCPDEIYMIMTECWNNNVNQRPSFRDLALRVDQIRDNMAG

Row | IC50 [1] | IC50 [2] | IC50 [3] | Compound | also measured
1 | 0.907 µM | 0.075 µM |  | Cc1cc(Nc2nc(N[C@H](C)c3ccc(F)cn3)c(C#N)nc2C)n[nH]1 | 
2 | 0.003 µM | < 0.003 µM | 11.7 µM | Cc1cc(Nc2cncc(N[C@@H](C)c3ccc(F)cn3)n2)[nH]n1 | 
3 | 0.421 µM | 0.01 µM |  | CC(C)Oc1cc(Nc2cncc(N[C@@H](C)c3ccc(F)cn3)n2)[nH]n1 | 
4 | 0.005 µM | < 0.003 µM | 12.8 µM | Cc1cc(Nc2cnc(C#N)c(NC(C)c3ccc(F)cn3)n2)n[nH]1 (stereo unspecified) | 
5 | 0.018 µM | < 0.003 µM |  | Cc1cc(Nc2nc(N[C@@H](C)c3ccc(F)cn3)cnc2C)[nH]n1 | 
6 | 0.025 µM | < 0.003 µM | 26.9 µM | C[C@H](Nc1nc(Nc2cc(C3CC3)n[nH]2)cnc1C#N)c1ccc(F)cn1 | 
7 | 0.008 µM | 0.003 µM |  | COc1cc(Nc2cncc(N[C@@H](C)c3ccc(F)cn3)n2)[nH]n1 | 
8 | 0.006 µM | < 0.003 µM |  | Cc1cc(Nc2cnc(C#N)c(N[C@@H](C)c3ncc(F)cn3)n2)n[nH]1 | GI50 [4]: 0.16 µM; IC50 [5]: 0.05 µM
9 | 0.003 µM | < 0.003 µM | 5.17 µM | Cc1cc(Nc2cnc(C#N)c(N[C@@H](C)c3ccc(F)cn3)n2)n[nH]1 | inhibition in vivo at 25 mg/kg [6]: > 90%; IC50 [7]: 0.68 µM; inhibition in vivo at 5 mg/kg [8]: > 80%; clearance [9]: 1.5 L/h/kg; half-life [10]: 1.2 h; IC50 [11]: 0.67 µM; GI50 [12]: 1.1 µM; inhibition in vivo at 25 mg/kg [13]: > 90%; GI50 [4]: 0.06 µM; IC50 [5]: 0.03 µM; Vd [14]: 2.2 L/kg; inhibition in vivo at 10 mg/kg [15]: > 90%
10 | 10.4 µM | 0.05 µM | > 30 µM | Cc1cc(Nc2nc(N[C@H](C)c3ncc(F)cn3)c(C#N)nc2C)[nH]n1 | 
11 | 0.142 µM | 0.004 µM | > 30 µM | Cc1cc(Nc2nc(O[C@@H](C)c3ccc(F)cn3)c(C#N)nc2C)[nH]n1 | 
12 | 0.011 µM | < 0.003 µM |  | Cc1cc(Nc2nc(N[C@@H](C)c3ccc(F)cn3)c(C#N)nc2C)n[nH]1 | GI50 [4]: 0.11 µM; IC50 [5]: 0.46 µM
13 | 4.67 µM | 0.108 µM | > 30 µM | Cc1cc(Nc2nc(O[C@H](C)c3ccc(F)cn3)c(C#N)nc2C)[nH]n1 | 
14 | 0.087 µM | < 0.003 µM | 26.5 µM | Cc1cc(Nc2nc(N[C@@H](C)c3ncc(F)cn3)c(C#N)nc2C)n[nH]1 | IC50 [7]: 0.85 µM; inhibition in vivo at 5 mg/kg [8]: > 80%; clearance [9]: 0.78 L/h/kg; half-life [10]: 1.6 h; Vd [16]: 1.1 L/kg; half-life [17]: 7 h; IC50 [11]: 1.48 µM; GI50 [12]: 7.4 µM; clearance [18]: < 0.12 L/h/kg; inhibition in vivo at 25 mg/kg [13]: > 95%; GI50 [4]: 0.22 µM; IC50 [5]: 0.41 µM; Vd [14]: 1.6 L/kg; inhibition in vivo at 10 mg/kg [15]: > 90%
15 | 0.003 µM | < 0.003 µM | 13.7 µM | Cc1cc(Nc2cncc(N[C@@H](C)c3ncc(F)cn3)n2)n[nH]1 | 
16 | 0.047 µM | < 0.003 µM |  | Cc1cc(Nc2nc(NC(C)c3ccc(F)cn3)c(C#N)nc2C)n[nH]1 (stereo unspecified) | 
